Source: US20180291468A1, “MARKERS OF TUMOR CELL RESPONSE TO ANTI-CANCER THERAPY” (REGENERON PHARMACEUTICALS, INC., priority 2013, published 2018)

Columns and labels:
Format in all cases: in vivo
A549 lung cancer tumor = assay: miRNA marker levels after A549 lung cancer tumor implantation and anti-tumor drug
Experimental: (§1) Plasma samples (50 uL) were stored at −80° C. after receiving them. The samples were thawed on ice, and total RNA was isolated with the miRCURY RNA Isolation Kit for Biofluids (Exiqon) according to the supplied protocol (1 uL of Exiqon spike-in UniRT RNA mix was added to each sample before RNA isolation). RNA was eluted into 50 uL nuclease-free water, and either processed directly for cDNA synthesis of stored at −80° C. until that time. RNA from each sample was used to create cDNA in 40 uL reaction volume with the Universal cDNA Synthesis Kit II (Exiqon) according to the supplied protocol. RNA concentration for plasma samples is not quantitated; 8 uL each RNA sample is used without adjusting concentration. The 40 uL of cDNA per sample was then used to set-up qPCR directly or stored at −20° C. until use. The 40 uL cDNA was diluted into 4 mL of nuclease-free water, and then mixed with 4 mL 2X ExiLENT SYBR Green master mix (Exiqon) to create 8 mL qPCR mix, according to protocol supplied with miRNome Panels (Exiqon). The 8 ml master mix was then pipetted into the two 384-well plates (Exiqon microRNA Ready-to-Use PCR, Human panel I+II, V3.M), 10 ul per well according to the supplied protocol. The plates were briefly centrifuged, sealed, and run on the ABI Viia7 real time PCR thermocycler, using the PCR template program supplied by Exiqon. Results were exported as text files and then imported into the GenEx software (Exiqon) for analysis. Data pre-processing and analysis steps were performed according to the recommendations of the Exiqon Data Analysis Guide. Briefly, biological replicate were grouped, outliers were automatically detected and removed, Ct values higher than 37 were considered background and removed, missing data was filled by the GenEx software with an imputed value based on group mean. Cts for each sample were normalized to the global mean of all expressed miRNAs with a Ct<34.

[1] = test system: COLO 205 human colorectal cancer cells; assay: Drug efficacy in COLO 205 tumor-bearing mice (tumor burden)
Experimental: Immune compromised mice were injected with COLO 205 human colorectal cancer cells and tumors were allowed to develop, after which the mice were treated with either irinotecan or vehicle for 14 days. In a second control group, normal mice maintained in parallel but not bearing tumors were treated with either irinotecan or vehicle. […] During the course of drug treatment, blood plasma samples were taken from all mice at regular intervals from 3 to 14 days. RNA was prepared from the plasma samples and analyzed for miRNA content by a panel of quantitative PCR assays for approximately 700 miRNAs. The relative quantities of each miRNA assayed were normalized to the global mean in each sample and then compared between the paired groups: drug versus vehicle treatment in tumor-bearing mice; drug versus vehicle in tumor-free mice; and tumor bearing versus tumor-free mice. […]
We looked for miRNAs whose pattern of detection matched that in the mice treated with drug for 14 days. The pattern of quantification for these miRNAs—higher or lower in the drug treated mice compared to the vehicle treated controls—matched miRNAs from the 14 day time point. […] These 14 miRNAs form a signature of plasma miRNA content that correlates with drug efficacy late in the course of drug treatment and predicts efficacy early in the drug treatment regimen before any effects of irinotecan on tumor burden could be detected.

COLO 205 tumor = assay: Plasma miRNA profiling by qPCR panel in COLO 205 tumor-bearing mice, drug versus vehicle; conditions: for miRNAs different upon drug treatment: Higher: plasma, relative to a vehicle-treated control, 3 days, matching 14 day pattern
Experimental: as §1
Immune compromised mice were injected with COLO 205 human colorectal cancer cells and tumors were allowed to develop, after which the mice were treated with either irinotecan or vehicle for 14 days. In a second control group, normal mice maintained in parallel but not bearing tumors were treated with either irinotecan or vehicle. […] During the course of drug treatment, blood plasma samples were taken from all mice at regular intervals from 3 to 14 days. RNA was prepared from the plasma samples and analyzed for miRNA content by a panel of quantitative PCR assays for approximately 700 miRNAs. The relative quantities of each miRNA assayed were normalized to the global mean in each sample and then compared between the paired groups: drug versus vehicle treatment in tumor-bearing mice; drug versus vehicle in tumor-free mice; and tumor bearing versus tumor-free mice. Samples were taken from six replicate mice for each time point in each of the categories.
To eliminate those miRNA differences that were the result of drug treatment alone, we examined the miRNA profiles in the irinotecan treated normal, tumor-free mice compared with the same type of mice treated with vehicle.
We looked for miRNAs whose pattern of detection matched that in the mice treated with drug for 14 days. The pattern of quantification for these miRNAs—higher or lower in the drug treated mice compared to the vehicle treated controls—matched miRNAs from the 14 day time point. We found three miRNAs, miR-30d-3p, miR-483-5p, and miR-708-3p, that were elevated in the drug treated tumor bearing mice compared with the vehicle controls and 11 miRNAs, miR-21-3p, miR-101-5p, miR-122-3p, miR-197-3p, miR-429, miR-501-3p, miR-509-3p, miR-598, miR-206, miR-885-5p, and miR-1972, that were lower in the drug treated mice compared with the controls. These 14 miRNAs form a signature of plasma miRNA content that correlates with drug efficacy late in the course of drug treatment and predicts efficacy early in the drug treatment regimen before any effects of irinotecan on tumor burden could be detected. […]

[2] = test system: PC3M prostate cancer tumor; assay: miRNA marker levels after PC3M prostate cancer tumor implantation and anti-tumor drug
Experimental: as §1

[3] = three days following administration
[4] = three days, matched 14 day time point

In the case of `N.N.[Cl][Pt][Cl]` [Cisplatin], the “particular miRNA marker levels upon administration to lung tumors (FIG. 2)” value (A549 lung cancer tumor; lung tumors (A549)) is reported as “decrease”, the “level of certain miRNA markers that decrease upon tumor implantation (FIG. 3)” value (A549 lung cancer tumor; [3]) is reported as “increase” and the “level of certain miRNA markers that increase upon tumor implantation (FIG. 1)” value (A549 lung cancer tumor; [3]) is reported as “decrease”. For the same compound, the “level of miR-16-5p, miR-1208, miR-24-3p and miR-588 (FIG. 4)” value (A549 lung cancer tumor; [3]) was “increase”.
With `CCc1c2c(nc3ccc(OC(=O)N4CCC(N5CCCCC5)CC4)cc13)-c1cc3c(c(=O)n1C2)COC(=O)[C@]3(O)CC` [irinotecan] the “tumor burden in drug treated mice versus vehicle treated control group” value ([1]; after 14 days of drug treatment) was “significantly lower tumor burden”, the “difference in tumor burden, drug versus vehicle” value ([1]; treated for only three days) was “no significant difference in tumor burden” and the “detection of the 11 miRNAs in plasma of drug treated mice” value (COLO 205 tumor; detectable in the vehicle treated mice) was “undetectable”. The “miRNAs different upon drug treatment: Higher” value (COLO 205 tumor; miR-483-5p) was “miR-483-5p”, the “miRNAs different upon drug treatment: Higher” value (COLO 205 tumor; miR-708-3p) was “miR-708-3p” and the “miRNAs different upon drug treatment: Higher” value (COLO 205 tumor; miR-30d-3p) was “miR-30d-3p”. For the same compound, the “plasma miR-21-3p, miR-101-5p, miR-122-3p, miR-197-3p, miR-429, miR-501-3p, miR-509-3p, miR-598, miR-206, miR-885-5p and miR-1972 in drug treated mice compared with controls” value (COLO 205 tumor; [4]) was “lower”, the “plasma miR-30d-3p, miR-483-5p and miR-708-3p in drug treated tumor bearing mice compared with vehicle controls” value (COLO 205 tumor; [4]) was “elevated” and the “detection of miR-30d-3p and miR-708-3p in plasma of treated tumor-bearing mice” value (COLO 205 tumor; tumor-bearing mice) was “went from undetected to detected”. For the same compound, the “plasma miR-483-5p in treated tumor-bearing mice” value (COLO 205 tumor; tumor-bearing mice) was “increased”.
For `CC(=O)O[C@@]12CO[C@@H]1C[C@H](O)[C@@]1(C)C(=O)[C@H](O)C3=C(C)[C@@H](OC(=O)[C@H](O)[C@@H](NC(=O)OC(C)(C)C)c4ccccc4)C[C@@](O)([C@@H](OC(=O)c4ccccc4)[C@H]21)C3(C)C` [Docetaxel], the “level of certain miRNA markers that decrease upon tumor implantation (FIG. 7)” value ([2]; following administration) was “increase”, the “level of certain miRNA markers that increase upon tumor implantation (FIG. 5)” value ([2]; following administration) was “decrease” and the “level of miR-190, miR-153 and miR-92a-1 (FIG. 6)” value ([2]; following administration) was “decrease”. For the same compound, the “level of miR-634 and miR-647 (FIG. 8)” value ([2]; following administration) was “increase” and the “particular miRNA marker levels upon administration to prostate tumors (FIG. 2)” value ([2]; prostate tumors (PC3M)) was “decrease”.
